Experimental data reported in PubChem BioAssay AID424 (Public Access to Neuroactive & Anticonvulsant Chemical …, 2006).

Assays:
[1] = anticonvulsant potency and neurotoxicity in rodents, summary, in vivo study, quantitative, MES, scMET, kindled rat, Frings mice (AID 424)
[2] = tested on: mouse i.p. maximal electroshock seizure protection, ED50; assay: as above
[3] = measured here: kindled rat ED50

SMILES	ED50 ([1]; Frings audiogenic mouse ED50) [mg/kg]	TD50 ([1]; i.p. mouse neurotoxicity TD50) [mg/kg]	ED50 ([1]; i.p. mouse scBic ED50) [mg/kg]	ED50 ([1]; i.p. mouse scMET ED50) [mg/kg]	ED50 ([1]; i.p. mouse scPic ED50) [mg/kg]	ED50 ([1]; i.p. rat MES ED50) [mg/kg]	ED50 ([1]; oral mouse MES ED50) [mg/kg]	ED50 ([1]; oral mouse scMET ED50) [mg/kg]	ED50 ([1]; oral rat MES ED50) [mg/kg]	ED50 ([1]; oral rat scMET ED50) [mg/kg]	TD50 ([1]; oral rat toxicity TD50) [mg/kg]	ED50 [2] [mg/kg]	ED50 [2, 3] [mg/kg]
NC(=O)N1c2ccccc2C=Cc2ccccc21	11.2	45.4	> 50	> 50	18.2	4.05	11.9	40.9	5.35	> 250	364	7.81	28.2
CCC1(C)CC(=O)NC1=O (configuration not stated)	328	341	272	136	226	> 220	> 1000	203	> 500	167	> 500		
O=C1CN=C(c2ccccc2Cl)c2cc([N+](=O)[O-])ccc2N1	0.105	0.264	0.039	0.024	0.074	0.67	42.8	0.03	7.86	0.607	2.38	25.5	0.79
CCC1(c2ccccc2)C(=O)NC(=O)NC1=O		45.5	37.7	13.9	27.5	2.61			8.26	26.1	51	11.3	19.7
CCN(CC)CC(=O)Nc1c(C)cccc1C		65.1	> 70	> 66	> 70		21	> 140	31.2	> 250	283	14.4	
